Measurements from patent US8729047B2, “Compositions for inhibiting redox-sensitive GTPases” (Board of Regents, The University of Texas System, priority 2010, dated 2014).
pKd: −log10 of the molar value. Read-outs that look alike come from different tables or passages of the source. Values belong to the compound of their own block, whether it stands above or below them.

What was measured:
RhoC C20S = RhoC C20S (Homo sapiens, UniProt P08134, C20S); test: RhoC expression (Western) and RhoC activity assay in cells; assay type: cell-based; design: expressed in transfected cells; host or cells: human mammary epithelial (HME) cells; conditions: HME-C20S RhoC cells, 6-TG three days
Protocol: FIG. 14. Determination of cell invasiveness in the presence and absence of thiopurines and/or redox agents. […] Western blot analysis representing the total expression of RhoC in these cells also is shown. (B) Experimental procedures for the determination of the time-dependent motility of cells using the QCM Cell Invasion Assay kit in the presence and absence of 6-TG and DETA/NO are described elsewhere herein.
Cells were lysed in an extraction buffer containing 50 mM NaCl, 5 mM MgCl2, 1 mM ethylenediaminetetraacetic acid (EDTA), 0.1 mM diethylenetriaminepentaacetic acid (DTPA), and 0.1% NP40 in 150 mM TrisHCl (pH 8.0). The content of […] RhoC in cells then was determined by using Western analysis that relies on a monoclonal anti-RhoC antibody (Biocompare, South San Francisco, Calif.). To determine RhoC activity, the colorimetric RhoA activation assay Biochem Kit (Cytoskeleton, Denver, Colo.) was used essentially as described in the previous study (Hall et al. Neoplasia 10, 797-803 (2008)) except that the RhoC specific antibody (vide supra), instead of the RhoA antibody included in the assay kit, was used for this analysis.

Rac1 = Rac1 (Homo sapiens, UniProt P63000); test: Guanine nucleotide exchange of [3H]GDP-loaded GTPase with 6-TGDP (FIG. 13A); assay type: binding; design: made in house; host or cells: E. coli
Protocol: (§1) FIG. 13. Guanine nucleotide exchange of small GTPases with 6-TGDP. (A) To monitor 6-TGDP-mediated GTPase GDP dissociation, [^3H]GDP-loaded GTPase (1 μM) was incubated with 6-TGDP (0-2000 μM) for 1 h. (B) To monitor GTPase 6-TGDP dissociation by GDP (0-2000 μM) in the presence and absence of dithiothreitol (DTT), 6-TGDP-loaded GTPase (˜1 μM) was treated with .NO2 (˜3 μM) under anaerobic conditions and was incubated with various concentrations of [^3H]GDP (0-2000 μM) in the presence and absence of DTT (10 mM) for 1 h. For all assays, aliquots were withdrawn and spotted onto nitrocellulose filters. The filters were then washed three times with an assay buffer, and radioactivity was determined using a Beckman-Coulter scintillation counter. The resultant radioactivity (dpm) values associated with GTPase-bound [^3H]GDP were converted into the fraction of mol nucleotide per mol total GTPase. The data presented represent mean and standard error values from triplicate measurements. The apparent dissociation constants (appKD values) of GTPase 6-TGDP association ([^3H]GDP dissociation, A); and 6-TGDP dissociation ([3H]GDP association, B) were obtained by fitting the data to a simple dissociation and association, respectively. (A) The ^appKD values of Ras, RhoC, RhoA and Rac1 for 6-TGDP, are, respectively, 2300, 230, 224, and 245 μM [6-TGDP]. (B) The appKD values of RhoC with and without DTT are, respectively, 560, and 1000 μM [[^3H]GDP], whereas the ^appKD values of Ras with and without DTT are 530, and 520 μM [[^3H]GDP], respectively. The standard errors of each ^appKD value are less than 10% of their given values, and regression values associated with the fit were r^2>0.9560.
A kinetic assay method using radiolabeled GDP ([^3H]GDP) was established. The apparent dissociation constants (^appKD 6-TGDP) of Rho GTPases (including RhoA, Cdc42, and Rac1/2/3) and Ras with 6-TGDP were determined (FIG. 13). The results of this preliminary kinetic study provided strong support for the mechanism proposed for the role of 6-TGNP in RhoC inactivation (FIG. 7).
The true dissociation constant (^trueKD 6-TGDP) of Ras, RhoC, RhoA and Rac1 for 6-TGDP was then calculated to be ˜20.7 pM, 212 μM, 208 μM, and 158 μM [6-TGDP] by using a compensation equation, ^trueKD 6-TGDP=^appKD 6-TGDP/(1+[GDP]/^trueKD GDP) (95), in conjunction with the values given [(^appKD 6-TGDP of Ras, RhoC, RhoA, and Rac1=2300, 230, 224, and 245 μM (FIG. 13) and ^trueKD GDP=9 pM, 12 μM, 13 μM and 1.8 μM, respectively. The ^trueKD GDP of Ras, RhoA and Rac1 was determined previously (Lenzen et al. Biochemistry 37, 7420-7430 (1998); Heo et al. Biochemistry 44, 6573-6585 (2005)) and the ^trueKD GDP of RhoC was further determined. Example: ^trueKD 6-TGDP for Ras=2300 μM/(1+1 μM GDP/[…])=[…] [6-TGDP]].

RhoC = RhoC (Homo sapiens, UniProt P08134); test: [3H]GDP displacement of 6-TGDP from .NO2-treated 6-TGDP-loaded GTPase with/without DTT (FIG. 13B); assay type: binding; design: made in house; host or cells: E. coli
Protocol: as §1
The ^appKD [3H]GDP was converted into ^trueKD [3H]GDP by using a compensation equation, ^trueKD [3H]GDP=^appKD [3H]GDP/(1+[6-TGDP]/^trueKD GDP) (Segel, I. H. (1993) Enzyme kinetics, A Wiley-Interscience publication, New York) (see above)). The calculated ^trueKD [3H]GDP values of RhoC in the presence and absence of DTT were estimated to be 516 μM and 923 μM, respectively. […] Treatment with DTT, a reducing agent, disrupts the disulfide bond between RhoC and 6-TGDP, liberating 6-TGDP from RhoC, and thereby permitting [^3H]GDP to bind to RhoC.

RhoA = biological target: T1, RhoA (Homo sapiens, UniProt P61586); conditions: known value (Morgan et al.); read-out: trueKD for GDP; cited from earlier work
T1 construct: made in house; host or cells: E. coli
T1 sequence (P61586 whole entry, species assumed): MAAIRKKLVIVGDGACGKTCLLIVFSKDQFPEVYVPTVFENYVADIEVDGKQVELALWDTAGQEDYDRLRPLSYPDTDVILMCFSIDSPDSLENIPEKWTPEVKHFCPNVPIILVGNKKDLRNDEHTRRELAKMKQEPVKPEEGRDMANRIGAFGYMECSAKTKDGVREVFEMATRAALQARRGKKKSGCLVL

RhoC, sequence (P08134 whole entry): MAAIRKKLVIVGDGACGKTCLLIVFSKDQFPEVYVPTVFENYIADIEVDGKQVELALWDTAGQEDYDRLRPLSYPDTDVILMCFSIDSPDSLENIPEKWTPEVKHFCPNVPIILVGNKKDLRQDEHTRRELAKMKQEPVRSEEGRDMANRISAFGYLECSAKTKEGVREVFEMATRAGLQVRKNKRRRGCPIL
RhoC C20S, sequence (P08134 whole entry C20S): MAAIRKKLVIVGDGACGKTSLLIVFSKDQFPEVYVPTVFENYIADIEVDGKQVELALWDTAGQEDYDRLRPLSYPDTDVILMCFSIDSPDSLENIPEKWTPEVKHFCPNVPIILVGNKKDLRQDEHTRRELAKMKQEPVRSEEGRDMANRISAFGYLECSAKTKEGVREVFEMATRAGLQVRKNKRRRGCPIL

activity and total expression of RhoC C20S (RhoC C20S): unchanged
SMILES: Nc1nc2nc[nH]c2c(=S)[nH]1 [6-TG, 6-thioguanine]

pKd (Rac1; [3H]GDP-loaded GTPase 1 μM, 6-TGDP 0-2000 μM, 1 h, FIG. 13A, read-out: appKD for 6-TGDP): 3.61
pKd (Rac1; calculated by compensation equation from appKD 6-TGDP and trueKD GDP, read-out: trueKD 6-TGDP): 3.80
SMILES: Nc1nc2c(ncn2[C@@H]2O[C@H](COP(=O)(O)OP(=O)(O)O)[C@@H](O)[C@H]2O)c(=S)[nH]1 [6-TGDP, 6-thioguanosine diphosphate]

SMILES: Nc1nc2c(ncn2[C@@H]2O[C@H](COP(=O)(O)OP(=O)(O)O)[C@@H](O)[C@H]2O)c(=O)[nH]1 [GDP]
pKd (RhoC; absence of DTT, calculated by compensation equation, read-out: trueKD [3H]GDP): 3.03
pKd (RhoC; presence of DTT, calculated by compensation equation, read-out: trueKD [3H]GDP): 3.29
pKd (RhoC; with DTT 10 mM, 6-TGDP-loaded GTPase ~1 μM treated with .NO2 ~3 μM, anaerobic, 1 h, read-out: appKD for [3H]GDP (6-TGDP dissociation)): 3.25
pKd (RhoC; without DTT, 6-TGDP-loaded GTPase ~1 μM treated with .NO2 ~3 μM, anaerobic, 1 h, read-out: appKD for [3H]GDP (6-TGDP dissociation)): 3.00
pKd (RhoA): 4.89
